Data taken from publication PMC5653814, “Regiospecific Synthesis of Ring A Fused Withaferin A Isoxazoline Analogues: Induction of Premature Senescence by W-2b in Proliferating Cancer Cells” (Scientific Reports, 2017).
Read-outs that look alike come from different tables or passages of the source.

Experiments:
[1] = test system: MCF7 cells; assay: MTT cell viability assay, MCF7; type: cell-based, human; conditions: read-out: Cytotoxicity IC50, MCF7
Method: (§1) The cell viability assay was performed according to the procedure previously described with minor modifications. Briefly, MCF7, HCT-116 and fR2 cells were plated in 96 well plates at a density of 5 × 10^3 cells per well and incubated overnight. […] MTT dye solution (2.5 mg/mL) was introduced to the cells in medium 4 h before the completion of the treatment period and the formed formazan crystals were solubilized with DMSO. Optical density was measured with the help of a UV-visible spectrophotometer coupled with microplate reader (TECAN, Infinite M200 Pro), the percent inhibition was calculated and IC50 values were determined with the help of GraphPad Prism software (GraphPad software Inc. CA, USA).
(§2) Data were expressed as the mean ± standard deviation of three independent experiments performed and analyzed by Student’s t-test. IC50 values were determined with the help of GraphPad Prism software Version 5.0 (GraphPad Software, Inc., USA) by taking the log of inhibitor vs. response. A 2-sided value of *P < 0.05 was considered significant in all cases.

[2] = test system: HCT-116 cells; assay: MTT cell viability assay, HCT-116; type: cell-based, human; conditions: read-out: Cytotoxicity IC50, HCT-116
Method: as §1, §2

[3] = MTT cell viability assay, fR2 normal breast epithelial cells; type: cell-based, human; conditions: human, fR2 normal breast epithelial cells, read-out: Cytotoxicity IC50, fR2
Method: as §1, §2

[4] = test system: fR2 cells; assay: as above; type: cell-based, human; conditions: 48 h, read-out: Cytotoxicity IC50, fR2
Method: as §1, §2

[5] = test system: 4T1 mouse mammary carcinoma; assay: In vivo tumor growth, 4T1 mouse mammary carcinoma model; conditions: 25 mg/kg b.w. intraperitoneal, each alternate day for two weeks
Method: The experiment was performed according to the pre-standardized protocol with minor modifications. To evaluate the in vivo anti-tumor efficacy of W-2b, healthy female Balb/c mice (25–30 g) were taken. Animals were randomized into three groups, and six animals were taken per group. For the tumor cells implantation, mouse mammary carcinoma 4T1 cells (1 × 10^6 per 200 μL) diluted in serum-free RPMI medium were injected subcutaneously into the mammary pad of each mouse around the second right mammary gland. A week after tumor cell implantation, when the palpable mammary tumors develop, mice were injected intraperitoneally with either vehicle (normal saline) or 5-FU (25 mg/kg/b.w.) or W-2b (25 mg/kg/b.w.) in each alternative day for two weeks. Tumor sizes were measured in each alternate day after tumor cell injection, and the body weight was recorded once in a week. Mice were sacrificed on the 15th day after treatment initiation, and tumors were dissected out carefully from the mammary pad area.

[6] = test system: MCF7 cells; assay: SA-β-gal activity assay, MCF7; type: cell-based, human; conditions: MCF7, five days; doxorubicin 100 nM, WA 2–3 µM
Method: (§3) The procedure was followed as described previously with some modifications. Briefly, MCF7 and HCT-116 cells (0.4 × 10^6 per well) were seeded in six-well plates and treated with indicated concentrations of W-2b along with WA, vehicle and positive control doxorubicin for five days. Cells were accordingly washed twice with PBS, fixed with 4% paraformaldehyde for 5 min, rinsed twice with PBS and incubated with freshly prepared staining solution (40 mM citric acid/Na phosphate buffer, 5 mM K4[Fe(CN)6] 3H2O, 5 mM K3[Fe(CN)6], 150 mM sodium chloride, 2 mM magnesium chloride and 1 mg/ml X-gal in distilled water, pH 6.0) for 48 h at 37 °C. Stained cells were thoroughly washed and air dried in dark. Cells were then observed under bright field microscope (NIKON) for the SA-β-gal positive cells and images were captured at 20x magnification.

[7] = test system: HCT-116 cells; assay: SA-β-gal activity assay, HCT-116; type: cell-based, human; conditions: HCT-116, five days; doxorubicin 100 nM, WA 2–3 µM
Method: as §3

[8] = Homo sapiens, HCT-116, 48 h, 48 h

Compound | IC50 ([1]; Homo sapiens, MCF7, 48 h, 48 h) | IC50 [2, 8] | IC50 at 48 h [3] | IC50 ([1]; 48 h) | IC50 ([2]; 48 h) | also measured
COc1cc(C(F)(F)F)ccc1C1=NOC2C1C(=O)C1(C)C3CCC4(C)C(C(C)C5CC(C)=C(CO)C(=O)O5)CCC4C3CC3OC31C2O (stereo not drawn) [W-9b, 2-methoxy-4-trifluorophenyl-2-isoxazoline withaferin A] | > 100 µM | 15.8 ± 3.31 µM | 66.2 ± 7.63 µM |  |  | 
CC1=C(CO)C(=O)OC(C(C)C2CCC3C4CC5OC56C(O)C5ON=C(c7ccc([N+](=O)[O-])cc7)C5C(=O)C6(C)C4CCC23C)C1 (stereo not drawn) [W-2a, 4-nitrophenyl-2-isoxazoline withaferin A] |  |  | 52.1 ± 6.6 µM | 5.82 ± 0.418 µM | 8.2 ± 0.211 µM | 
CC1=C(CO)C(=O)O[C@@H]([C@@H](C)C2CCC3C4C[C@H]5O[C@]56[C@@H](O)[C@@H]5ON=C(c7ccc(Cl)cc7)[C@@H]5C(=O)[C@]6(C)C4CC[C@@]32C)C1 (stereo partly drawn) [W-1b, 4-chlorophenyl-2-isoxazoline withaferin A] | 1.64 ± 0.267 µM | 16.2 ± 0.676 µM | 39.2 ± 3.81 µM |  |  | 
CC1=C(CO)C(=O)OC(C(C)C2CCC3C4CC5OC56C(O)C5ON=C(c7ccc(Cl)cc7Cl)C5C(=O)C6(C)C4CCC23C)C1 (stereo not drawn) [W-6a] |  |  | > 100 µM | 2.28 ± 0.265 µM | > 100 µM | 
CC1=C(CO)C(=O)OC(C(C)C2CCC3C4CC5OC56C(O)C5ON=C(c7ccncc7)C5C(=O)C6(C)C4CCC23C)C1 (stereo not drawn) [W-5a, pyridenyl-2-isoxazoline withaferin A] |  | 63.8 ± 5.43 µM | > 100 µM | 3.52 ± 0.185 µM |  | 
CC(=O)OCC1=C(C)C[C@H]([C@@H](C)C2CCC3C4C[C@H]5O[C@]56[C@@H](OC(C)=O)[C@@H]5ON=C(c7ccc(F)cc7)[C@@H]5C(=O)[C@]6(C)C4CC[C@@]32C)OC1=O (stereo partly drawn) [W-12b, 4-fluorophenyl-2-isoxazoline 4,27-acetylwithaferin A] | 26.9 ± 2.22 µM | 5.29 ± 0.151 µM | 75.6 ± 4.82 µM |  |  | 
CC1=C(CO)C(=O)OC(C(C)C2CCC3C4CC5OC56C(O)C5ON=C(c7ccc(C(F)(F)F)cc7)C5C(=O)C6(C)C4CCC23C)C1 (stereo not drawn) [W-11b, 4-trifluorophenyl-2-isoxazoline withaferin A] |  |  |  | 83.3 ± 6.51 µM | 4.16 ± 0.344 µM | IC50 [4]: > 100 µM
CC1=C(CO)C(=O)OC(C(C)C2CCC3C4CC5OC56C(O)C5ON=C(c7ccccc7C(F)(F)F)C5C(=O)C6(C)C4CCC23C)C1 (stereo not drawn) [W-8a, 2-trifluoromethylphenyl-2-isoxazoline withaferin A] | 17.6 ± 1.68 µM | 7.5 ± 1.13 µM | 28.2 ± 4.21 µM |  |  | 
O=c1[nH]cc(F)c(=O)[nH]1 [5-FU, 5-fluorouracil, reference compound] |  |  |  |  |  | Inhibition in tumor volume ([5]; Balb/c mice): 78.4%; Inhibition in tumor weight ([5]; vs normal saline group): 86.7%
COc1cccc2c1C(=O)c1c(O)c3c(c(O)c1C2=O)C[C@@](O)(C(=O)CO)C[C@@H]3O[C@H]1C[C@H](N)[C@H](O)[C@H](C)O1 [doxorubicin] |  |  |  |  |  | SA-β-gal staining, senescent cells (in words) [6]: substantial increase in the number of cells with distinct senescence phenotype; SA-β-gal staining, senescent cells (in words) [7]: substantial increase in the number of cells with distinct senescence phenotype
CC1=C(CO)C(=O)O[C@@H]([C@@H](C)C2CCC3C4C[C@H]5O[C@]56[C@@H](O)[C@H]5ON=C(c7ccc(Cl)cc7)[C@H]5C(=O)[C@]6(C)C4CC[C@@]32C)C1 (stereo partly drawn) [W-1a, 4-chlorophenyl-2-isoxazoline withaferin A] | 3.8 ± 0.378 µM | 5.62 ± 0.412 µM | 45.8 ± 5.19 µM |  |  | 
CC1=C(CO)C(=O)OC(C(C)C2CCC3C4CC5OC56C(O)C5ON=C(c7ccc(F)cc7)C5C(=O)C6(C)C4CCC23C)C1 (stereo not drawn) [W-4a, 4-fluorophenyl-2-isoxazoline withaferin A] |  |  |  | > 100 µM | 19.6 ± 1.81 µM | IC50 [4]: > 100 µM
COc1ccc(Br)cc1C1=NOC2C1C(=O)C1(C)C3CCC4(C)C(C(C)C5CC(C)=C(CO)C(=O)O5)CCC4C3CC3OC31C2O (stereo not drawn) [W-7a, 3-bromo-6-methoxyphenyl-2-isoxazoline withaferin A] | 70.6 ± 5.18 µM | 8.1 ± 1.66 µM | > 100 µM |  |  | 
CC1=C(CO)C(=O)OC(C(C)C2CCC3C4CC5OC56C(O)C5ON=C(c7ccc(Br)cc7)C5C(=O)C6(C)C4CCC23C)C1 (stereo not drawn) [W-3b, 4-bromophenyl-2-isoxazoline withaferin A] |  |  |  | 1.82 ± 0.33 µM | 15.9 ± 1.67 µM | IC50 [4]: 85.3 ± 9.5 µM
CC1=C(CO)C(=O)OC(C(C)C2CCC3C4CC5OC56C(O)C5ON=C(c7ccc(Br)cc7)C5C(=O)C6(C)C4CCC23C)C1 (stereo not drawn) [W-3a, 4-bromophenyl-2-isoxazoline withaferin A] |  |  | > 100 µM | 95.5 ± 5.41 µM | 45.8 ± 2.34 µM | 
CC1=C(CO)C(=O)OC(C(C)C2CCC3C4CC5OC56C(O)C5ON=C(c7ccncc7)C5C(=O)C6(C)C4CCC23C)C1 (stereo not drawn) [W-5b, pyridenyl-2-isoxazoline withaferin A] |  |  |  | 9.7 ± 0.55 µM | 42.4 ± 3.19 µM | IC50 [4]: 91.2 ± 7.33 µM
CC1=C(CO)C(=O)OC(C(C)C2CCC3C4CC5OC56C(O)C5ON=C(c7c(Cl)cccc7Cl)C5C(=O)C6(C)C4CCC23C)C1 (stereo not drawn) [W-10a, 2,6-dichlorophenyl-2-isoxazoline withaferin A] | 58.3 ± 3.24 µM | 5.28 ± 0.561 µM | 98.1 ± 7.18 µM |  |  | 
CC1=C(CO)C(=O)O[C@@H]([C@@H](C)[C@H]2CC[C@H]3[C@@H]4C[C@H]5O[C@]56[C@@H](O)C=CC(=O)[C@]6(C)[C@H]4CC[C@]23C)C1 [WA, Withaferin A] | 1.75 ± 0.376 µM | 2.58 ± 0.415 µM | 43.3 ± 3.77 µM |  |  | IC50 ([1]; Homo sapiens, MCF7, 24 h, 24 h): 9.18 ± 1.36 µM; IC50 ([1]; Homo sapiens, MCF7, 72 h, 72 h): 1.46 ± 0.291 µM; IC50 ([2]; Homo sapiens, HCT-116, 24 h, 24 h): 4.38 ± 1.67 µM; IC50 ([2]; Homo sapiens, HCT-116, 72 h, 72 h): 2.13 ± 0.55 µM; IC50 at 24 h ([3]; 24 h): 51.1 ± 5.18 µM; IC50 at 72 h ([3]; 72 h): 38.3 ± 5.22 µM; SA-β-gal staining, senescent cells (in words) [6]: very less number of senescent cells; SA-β-gal staining, senescent cells (in words) [7]: very less number of senescent cells
CC1=C(CO)C(=O)OC(C(C)C2CCC3C4CC5OC56C(O)C5ON=C(c7ccc(F)cc7)C5C(=O)C6(C)C4CCC23C)C1 (stereo not drawn) [W-4b, 4-fluorophenyl-2-isoxazoline withaferin A] | > 100 µM |  | > 100 µM |  | > 100 µM | 
CC1=C(CO)C(=O)OC(C(C)C2CCC3C4CC5OC56C(O)C5ON=C(c7ccc(C(F)(F)F)cc7)C5C(=O)C6(C)C4CCC23C)C1 (stereo not drawn) [W-11a, 4-trifluorophenyl-2-isoxazoline withaferin A] | > 100 µM |  | > 100 µM |  | 24.5 ± 2.55 µM | 
